Test results: ChEMBL document CHEMBL1687726, “Amphotericin B-induced renal tubular cell injury is mediated by Na+ Influx through ion-permeable pores and subsequent activation of mitogen-activated protein kinases and elevation of intracellular Ca2+ concentration” (Antimicrob Agents Chemother, 2009)
Active and inactive are the calls of the source. The calls are words filed in the database; no cut-off is given here.

Key:
LLC-PK1 [1] = test: Induction of apoptosis in pig LLC-PK1 cells at 15 ug/ml after 24 hrs by TUNEL assay; type: cell-based, Sus scrofa; settings: llc-pk1, 24 h
LLC-PK1 [2] = test: Induction of JNK phosphorylation in pig LLC-PK1 cells at 15 ug/ml by Western blot analysis; type: cell-based; settings: Sus scrofa
LLC-PK1 [3] = test: Induction of mitochondrial membrane depolarization in pig LLC-PK1 cells at 15 ug/ml after 3 hrs pretreated with 10 uM of JNK inhibitor 2 for 1 hr by JC-1 staining based fluorescent microscopy; type: cell-based, Sus scrofa; settings: llc-pk1, 3 h
LLC-PK1 [4] = test: Cytotoxicity against pig LLC-PK1 cells at 1 to 20 ug/mL after 24 hrs by LDH leakage assay; type: cell-based, Sus scrofa; settings: llc-pk1, 24 h
LLC-PK1 [5] = test: Cytotoxicity against pig LLC-PK1 cells at 15 ug/ml after 6 hrs pretreated with 10 uM of p38 MAPK inhibitor PD169316 for 1 hr by WST-8 assay; type: cell-based, Sus scrofa; settings: llc-pk1, 6 h
LLC-PK1 [6] = test: Induction of ERK phosphorylation in pig LLC-PK1 cells at 15 ug/ml by Western blot analysis; type: cell-based; settings: Sus scrofa
LLC-PK1 [7] = test: Cytotoxicity against pig LLC-PK1 cells at 15 ug/ml after 6 hrs pretreated with 1 uM of IP3 antagonist Xesto for 20 mins by WST-8 assay; type: cell-based, Sus scrofa; settings: llc-pk1, 6 h
LLC-PK1 [8] = test: Cytotoxicity against pig LLC-PK1 cells at 15 ug/ml after 6 hrs pretreated with 10 uM of JNK inhibitor 2 for 1 hr by WST-8 assay; type: cell-based, Sus scrofa; settings: llc-pk1, 6 h
LLC-PK1 [9] = test: Induction of p38 phosphorylation in pig LLC-PK1 cells at 15 ug/ml by Western blot analysis; type: cell-based; settings: Sus scrofa
LLC-PK1 [10] = test: Cytotoxicity against pig LLC-PK1 cells at 15 ug/ml after 6 hrs pretreated with 10 uM of mitochondrial Ca2+ uniport inhibitor RR for 20 mins by WST-8 assay; type: cell-based, Sus scrofa; settings: llc-pk1, 6 h
LLC-PK1 [11] = test: Induction of mitochondrial membrane depolarization in pig LLC-PK1 cells at 15 ug/ml after 3 hrs by JC-1 staining based fluorescent microscopy; type: cell-based, Sus scrofa; settings: llc-pk1, 3 h
LLC-PK1 [12] = test: Induction of mitochondrial membrane depolarization in pig LLC-PK1 cells at 15 ug/ml after 3 hrs pretreated with 10 uM of ERK inhibitor PD98059 for 1 hr by JC-1 staining based fluorescent microscopy; type: cell-based, Sus scrofa; settings: llc-pk1, 3 h
LLC-PK1 [13] = test: Cytotoxicity against pig LLC-PK1 cells at 20 ug/mL by WST-8 assay; type: cell-based, Sus scrofa; settings: TDE = time-dependent effect
LLC-PK1 [14] = test: Cytotoxicity against pig LLC-PK1 cells at 15 ug/ml after 6 hrs pretreated with 10 uM of mitochondrial Na+ -Ca2+ exchange inhibitor CGP for 20 mins by WST-8 assay; type: cell-based, Sus scrofa; settings: llc-pk1, 6 h
LLC-PK1 [15] = test: Cytotoxicity against pig LLC-PK1 cells at 15 ug/ml after 6 hrs pretreated for 1 hr with membrane cholesterol depletion agent methyl-beta-cyclodextrin; type: cell-based, Sus scrofa; settings: llc-pk1, 6 h
LLC-PK1 [16] = test: Cytotoxicity against pig LLC-PK1 cells at 15 ug/ml after 24 hrs by propidium iodide staining; type: cell-based, Sus scrofa; settings: llc-pk1, 24 h
LLC-PK1 [17] = test: Cytotoxicity against pig LLC-PK1 cells at 20 ug/mL by LDH leakage assay; type: cell-based, Sus scrofa; settings: TDE = time-dependent effect
LLC-PK1 [18] = test: Induction of JNK phosphorylation in pig LLC-PK1 cells at 15 ug/ml by Western blot analysis in presence of 2 uM […]; type: cell-based; settings: Sus scrofa
LLC-PK1 [19] = test: Cytotoxicity against pig LLC-PK1 cells at 1 to 20 ug/mL after 24 hrs by WST-8 assay; type: cell-based, Sus scrofa; settings: llc-pk1, 24 h
LLC-PK1 [20] = test: Decrease in intracellular ATP level in pig LLC-PK1 cells at 10 ug/ml after 24 hrs by HPLC/MS analysis; type: ADME, cell-based, Sus scrofa; settings: llc-pk1, 24 h, TDE = time-dependent effect
LLC-PK1 [21] = test: Cytotoxicity against pig LLC-PK1 cells at 15 ug/ml after 6 hrs by WST-8 assay in presence of 1 mM […] Ca2+ chelating agent EGTA; type: cell-based, Sus scrofa; settings: llc-pk1, 6 h
LLC-PK1 [22] = test: Induction of ERK phosphorylation in pig LLC-PK1 cells at 15 ug/ml by Western blot analysis in presence of 2 uM […]; type: cell-based; settings: Sus scrofa
LLC-PK1 [23] = test: Cytotoxicity against pig LLC-PK1 cells at 15 ug/ml after 6 hrs by WST-8 assay in presence of 2 uM […]; type: cell-based, Sus scrofa; settings: llc-pk1, 6 h
LLC-PK1 [24] = test: Induction of mitochondrial membrane depolarization in pig LLC-PK1 cells at 15 ug/ml after 3 hrs pretreated with 10 uM of mitochondrial Ca2+ uniport inhibitor RR for 1 hr by JC-1 staining based fluorescent microscopy; type: cell-based, Sus scrofa; settings: llc-pk1, 3 h
LLC-PK1 [25] = test: Induction of p38 phosphorylation in pig LLC-PK1 cells at 15 ug/ml by Western blot analysis in presence of 2 uM […]; type: cell-based; settings: Sus scrofa
LLC-PK1 [26] = test: Cytotoxicity against pig LLC-PK1 cells at 15 ug/ml after 6 hrs by WST-8 assay in presence low extracellular Na+ level (70 mM Na+); type: cell-based, Sus scrofa; settings: llc-pk1, 6 h
LLC-PK1 [27] = test: Decrease in intracellular ATP level in pig LLC-PK1 cells after 24 hrs by HPLC/MS analysis; type: ADME, cell-based, Sus scrofa; settings: llc-pk1, 24 h
LLC-PK1 [28] = test: Induction of mitochondrial membrane depolarization in pig LLC-PK1 cells at 15 ug/ml after 3 hrs pretreated with 10 uM of mitochondrial Na+ -Ca2+ exchange inhibitor CGP for 1 hr by JC-1 staining based fluorescent microscopy; type: cell-based, Sus scrofa; settings: llc-pk1, 3 h
LLC-PK1 [29] = test: Cytotoxicity against pig LLC-PK1 cells at 15 ug/ml after 6 hrs pretreated for 1 hr with membrane cholesterol depletion agent methyl-beta-cyclodextrin in presence of 4% v/v cholesterol repletion condition; type: cell-based, Sus scrofa; settings: llc-pk1, 6 h
LLC-PK1 [30] = test: Cytotoxicity against pig LLC-PK1 cells at 15 ug/ml after 6 hrs pretreated with 30 uM of ryanodine receptor antagonist Dant for 20 mins by WST-8 assay; type: cell-based, Sus scrofa; settings: llc-pk1, 6 h
LLC-PK1 [31] = test: Cytotoxicity against pig LLC-PK1 cells at 15 ug/ml after 6 hrs pretreated with 10 uM of ERK inhibitor PD98059 for 1 hr by WST-8 assay; type: cell-based, Sus scrofa; settings: llc-pk1, 6 h

Q: `C[C@@H]1[C@H](O)[C@@H](C)/C=C/C=C/C=C/C=C/C=C/C=C/C=C/[C@H](O[C@@H]2O[C@H](C)[C@@H](O)[C@H](N)[C@@H]2O)C[C@@H]2O[C@](O)(C[C@@H](O)C[C@@H](O)[C@H](O)CC[C@@H](O)C[C@@H](O)CC(=O)O[C@H]1C)C[C@H](O)[C@H]2C(=O)O` [AMPHOTERICIN B] was tested. Which Activity (LLC-PK1 [1]) did it give?
A: The Activity was “Non-toxic”.

Q: What about the Activity (LLC-PK1 [2]) of the same compound?
A: The Activity was “Active”.

Q: What about the Activity (LLC-PK1 [3]) of the same compound?
A: The Activity was “Toxic”.

Q: What about the Activity (LLC-PK1 [4]) of the same compound?
A: The Activity was “Dose-dependent effect”.

Q: What about the Activity (LLC-PK1 [5]) of the same compound?
A: The Activity was “Non-toxic”.

Q: What about the Activity (LLC-PK1 [6]) of the same compound?
A: The Activity was “Active”.

Q: What about the Activity (LLC-PK1 [7]) of the same compound?
A: Its Activity is “Toxic”.

Q: And the Activity (LLC-PK1 [8])?
A: Its Activity is “Non-toxic”.

Q: And the Activity (LLC-PK1 [9])?
A: Its Activity is “Active”.

Q: And the Activity (LLC-PK1 [10])?
A: Its Activity is “Non-toxic”.

Q: What about the Activity (LLC-PK1 [11]) of the same compound?
A: The Activity was “Toxic”.

Q: What about the Activity (LLC-PK1 [12]) of the same compound?
A: Its Activity is “Toxic”.

Q: What about the Activity (LLC-PK1 [13]) of the same compound?
A: The Activity was “tde”.

Q: And the Activity (LLC-PK1 [14])?
A: Its Activity is “Non-toxic”.

Q: What about the Activity (LLC-PK1 [15]) of the same compound?
A: The Activity was “Non-toxic”.

Q: And the Activity (LLC-PK1 [16])?
A: The Activity was “Toxic”.

Q: What about the Activity (LLC-PK1 [17]) of the same compound?
A: The Activity was “tde”.

Q: What about the Activity (LLC-PK1 [18]) of the same compound?
A: The Activity was “Active”.

Q: And the Activity (LLC-PK1 [19])?
A: The Activity was “Dose-dependent effect”.

Q: What about the Activity (LLC-PK1 [20]) of the same compound?
A: Its Activity is “tde”.

Q: And the Activity (LLC-PK1 [21])?
A: Its Activity is “Non-toxic”.

Q: What about the Activity (LLC-PK1 [22]) of the same compound?
A: The Activity was “Active”.

Q: And the Activity (LLC-PK1 [23])?
A: The Activity was “Toxic”.

Q: What about the Activity (LLC-PK1 [24]) of the same compound?
A: Its Activity is “Toxic”.

Q: And the Activity (LLC-PK1 [25])?
A: Its Activity is “Active”.

Q: And the Activity (LLC-PK1 [26])?
A: Its Activity is “Non-toxic”.

Q: And the Activity (LLC-PK1 [27])?
A: The Activity was “Dose-dependent effect”.

Q: And the Activity (LLC-PK1 [28])?
A: The Activity was “Toxic”.

Q: What about the Activity (LLC-PK1 [29]) of the same compound?
A: Its Activity is “Toxic”.

Q: What about the Activity (LLC-PK1 [30]) of the same compound?
A: The Activity was “Non-toxic”.

Q: And the Activity (LLC-PK1 [31])?
A: Its Activity is “Non-toxic”.
